Series [1] can be described thus: Oral dosing in portal vein-cannulated rats, portal vein plasma. The format is in vivo. To be noted: oral dosing 30 and 200 mg/kg, over a four-hour time period.
The nature of series [2]: Oral absorption profile, time to Cmax in dogs. To be noted: dog, in vivo.
A short description of series [3]: Solubility and intrinsic dissolution. The format is physicochemical.
Series [4] deals with full-length glucocorticoid (GR) protein. Nature of the series: Glucocorticoid receptor fluorescence polarization ligand binding (GRFP) assay. To be noted: additional result (footnote a).
Excerpt: The glucocorticoid receptor fluorescence polarization ligand binding (GRFP) assay is used to evaluate direct binding of testing compounds to full-length glucocorticoid (GR) protein. Reagents for this assay are purchased from Invitrogen in a test kit. A fluorescent labeled GR ligand is used as a fluorescent tracer and test compounds compete with the fluorescent tracer for GR binding. The change in polarization value in the presence of test compounds is due to binding of test compounds to GR and is used to determine IC50 and relative binding affinity of test compounds for GR.
Another series relates to IL-6. Nature of the series: IL-1β-stimulated IL-6 production in A549 lung epithelial cells. Format: cell-based, Human. The procedure:
Human A549 lung epithelial cells (American Type Culture Collection, Rockville, MD) were cultured in Kaighn's F-12K medium with penicillin-streptomycin (10 U/mL) and 10% heat-inactivated fetal bovine serum (all from Invitrogen, Grand Island, NY). A549 cells were plated at a density of 30,000 cells/well in 96-well plates and incubated overnight at 37°C and with 5% CO2. The cells were serum-starved by replacing the growth medium with serum-free Kaighn's F-12K medium with penicillin-streptomycin (10 U/mL) and, again, incubating overnight at 37°C and with 5% CO2. On the third day, the medium was replaced with fresh serum-free medium and the cells were incubated with or without compound (vehicle was DMSO at 0.1 % maximum concentration) for approximately 1 hour and then stimulated with 1 ng/mL recombinant human IL-1β (R&D Systems, Minneapolis, MN) for 20 hours at 37°C and with 5% CO2. Cell supernatants were collected for determination of IL-6 levels using MSD (Meso Scale Discovery, Gaithersburg, MD) 96-well Single Spot plates as per the manufacturer's instructions. Plates were read with an MSD Sector Imager 6000. […] Percent inhibition for each compound concentration, relative to these controls, was calculated using Excel (Microsoft, Redmond, WA). IC50 values were generated using GraFit 5.0 data analysis software (Erithacus Software Ltd., Surrey, UK).

The next series in a line: in vivo. To be noted: rat, po.
Series [5] can be described thus: Oral absorption profile in rats.
Series [6] can be described thus: Caco-2 cell monolayer A→B permeability assay. To be noted: human. In general terms: Passage across Caco-2 layers is used to estimate intestinal permeability.
Excerpt: The Caco-2 cell monolayer is an in vitro tissue culture model of the intestinal epithelium. These cells are of human colonic origin and become polarized, fully differentiated enterocytes in 2-3 weeks. Once differentiated, these cells have tight junctions and express various biochemical processes such as active efflux transporters including P-glycoprotein (P-gp). With this model, it is possible to determine the apparent permeability (Papp) of a compound across the polarized Caco-2 cell monolayer.
An A→B Assay is performed with Caco-2 cell monolayers to determine compound Papp from A chamber to B chamber. This Papp is representative of luminal (gut) to serosal (blood) compound transport across intestinal epithelium that may be seen during intestinal absorption.

Regarding `Cc1ncccc1NC(=O)c1ccc2c(c1)CC[C@@H]1C[C@@](OP(=O)(O)O)(C(F)(F)F)CC[C@@]21Cc1ccccc1` [Example 2, (2R,4αS,10αR)-4α-benzyl-7-((2-methylpyridin-3-yl)carbamoyl)-2-(trifluoromethyl)-1,2,3,4,4α,9,10,10α-octahydrophenanthren-2-yl dihydrogen phosphate], in series [1], the “detection in portal vein plasma samples” value is reported as “detection of Example 1, but not Example 2”. In series [2], the Tmax is 48 min. Moreover, the “solubility and intrinsic dissolution” value in [3] is “enhanced solubility and intrinsic dissolution”. For the same compound, the IC50 in series [4] turned out to be 42 nM; with IL-6 (Homo sapiens, A549 cells, additional result (footnote a)) it was 17 nM. In addition, the “IL-6 % Inhibition” value with IL-6 (A549 cells, additional result (footnote a)) is on record as 80%. In the series with IL-6 (Homo sapiens, A549), the inhibition turned out to be 60.2%. In addition, in the series on Caco-2 cell monolayer, the “Example 1 in apical and basolateral compartments” value was “significant elevation of Example 1 in both the apical and basolateral compartments”. Moreover, the AUC in “in vivo” was 1610 ng·h/mL. In addition, the “bioavailability F” value in [5] is given as 59%. For the same compound, the Cmax in series [5] (oral) was found to be 590 ng/mL. Moreover, in [6], the Papp A→B is 1.15 ×10⁻⁶ cm/s.

For orientation: Tmax means the time at which the peak concentration occurs. The IC50 is the concentration that inhibits the measured activity by half. A low value points to greater potency in that assay. A word on the inhibition: it is the share of the control response that was lost under treatment. Lower therefore signals little suppression. By AUC is commonly meant concentration integrated over time. A higher AUC goes with high exposure. A word on the Cmax: it is the highest concentration seen after dosing. As usually defined, the Papp A→B is how fast a substance crosses the layer from the apical side.

These data come from patent EP2114888B1, “TRICYCLIC COMPOUNDS AND THEIR USE AS GLUCOCORTICOID RECEPTOR MODULATORS” (priority 2007, dated 2008).
